# Assay results: PubChem BioAssay AID2060504 (Molecular Pharmacology Branch, DTP, NCI, 2025)
# Tested on: 636577-100-R-J1-PDC complex spheroid viability
# Assay: Anticancer human tumor 636577-100-R-J1-PDC patient-derived endometrial adenocarcinoma cell line growth inhibition [GQUAD]
# Conditions: for IC50: curve of first compound; for viability, T/C: stronger effect = lower value
# Excerpt: DNA G-quadruplex Stabilizer Agents in Combinations in Complex Spheroids
# A high-throughput screen of multi-cell type tumor spheroids was designed to identify active combinations of DNA G-quadruplex stabilizer agents and targeted small molecules. Complex spheroids include a stromal component modeled by human endothelial cells (HUVEC) and fibroblasts modeled by human mesenchymal stem cells (MSCs). The concentration ranges selected for each drug and investigational agent were based upon clinically achievable concentrations if the clinical Cmax of the agent was known.
# Compounds. The drugs and investigational agents: pidnarulex (CX-5461; NSC782164), APTO-253 (NSC789042), BRACO-19 (NSC847499), peposertib (NSC802822), ceralasertib (NSC780249), elimusertib (NSC800525), camonsertib (NSC841442), AZD-1390 (NSC803789), olaparib (NSC753686), talazoparib (NSC767125), ART-558 (NSC835418), sotorasib (NSC818433), MRTX-1133 (NSC836407), SN-38 (NSC673596), topotecan (NSC609699), etoposide (NSC141540), doxorubicin (NSC123127), gemcitabine (NSC613327), 5-fluorouracil (NSC19893), paclitaxel (NSC125973), vemurafenib (NSC761431), panobinostat (NSC761190), R-306465 (JNJ-16241199; NSC773264), adavosertib (NSC754352), TP-3654 (NSC805149), carboplatin (NSC241240), KSQ-4279 (NSC840948), and staurosporine (NSC755774) were obtained from the National Cancer Institute (NCI) Developmental Therapeutics Program Chemical Repository (34). The FDA-approved anticancer drug set is available from the NCI Developmental Therapeutics Program. […] The stock solutions were prepared in dimethyl sulfoxide (DMSO, Sigma-Aldrich, St. Louis, MO, cat. D2650) at 800-fold the tested concentration and stored at -70 degrees C prior to their use. All drugs and investigational agents were tested over a range starting from a high concentration at or near the clinical Cmax and decreasing in half-log increments. If the clinical Cmax for an agent had not been determined, the highest concentration tested was 10 microM.
# 2.3 Cell Culture. All cells were maintained in an incubator at 37 degrees C and 5% CO2 with 95% humidity. The PDC lines were cultured according to standard operating procedures established by the NCI PDMR. All PDCs were thawed and cultured in Matrigel-coated flasks prepared with a working solution of 1X Ham's F-12 nutrient mix, without supplementation (Invitrogen, cat. 11765054), 100 U/mL penicillin-streptomycin (Invitrogen, cat. 15140122), and 2.5% Matrigel (Corning Inc., cat. 354248) for the first three passages. The 857933-349-R-J2-PDC line was cultured in 6C/Colon 1B media, which includes advanced DMEM/F-12 (Thermo Fisher Scientific, cat. 12634028), 10 mM HEPES (Thermo Fisher Scientific, cat. 15630080), 1X GlutaMAX supplement (Thermo Fisher Scientific, cat. 35050061), 0.1 mg/mL primocin (InvivoGen, cat. ant-pm-2), 10% defined fetal bovine serum, heat inactivated (HyClone Laboratories Inc., cat. SH30070.03HI), 50% L-WRN conditioned media (ATCC, cat. CRL-3276), 1.25 mM N-Acetyl-L-cysteine (Sigma-Aldrich, cat. A9165), 10 mM nicotinamide (Sigma-Aldrich, cat. N0636), 1X B-27 supplement (Thermo Fisher Scientific, cat. 17504044), 1X N-2 supplement (Thermo Fisher Scientific, cat. 17502048), 10 microM Y-27632 dihydrochloride (Tocris Bioscience, cat. 1254), and 50 ng/mL human EGF recombinant protein (Thermo Fisher Scientific, cat. PHG0311). The 485176-168-R4-J1-PDC line was cultured in Panc media, which includes all 6C/Colon 1B media components plus 100 ng/mL human FGF-10 (Thermo Fisher Scientific, cat. 100-26), 500 nM SB-431542 (Selleckchem, cat. S1067), and gastrin (Tocris, cat. 3006).
# […]
# [1] = second compound 0.0316 µM, first compound 0.0316 µM
# [2] = second compound 0.0316 µM, first compound 0.316 µM
# [3] = second compound 0.1 µM, first compound 0.0316 µM
# [4] = second compound 0.1 µM, first compound 0.316 µM
# [5] = second compound 0.316 µM, first compound 0.0316 µM
# [6] = second compound 0.316 µM, first compound 0.316 µM
# [7] = second compound 1 µM, first compound 0.0316 µM
# [8] = second compound 1 µM, first compound 0.316 µM
# [9] = second compound 3.16 µM, first compound 0.0316 µM
# [10] = second compound 3.16 µM, first compound 0.316 µM
# [11] = second compound 10 µM, first compound 0.0316 µM
# [12] = second compound 10 µM, first compound 0.316 µM
# 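Also: viability read after seven days of drug exposure.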
# 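For viability, T/C in this document: luminescence signal used as a proxy for viable cells; 100% = DMSO vehicle control wells.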
smiles,measurement,setting,value
Cn1ncnc1[C@H]1c2n[nH]c(=O)c3cc(F)cc(c23)N[C@@H]1c1ccc(F)cc1 + CN(C)c1ccc(Nc2c3ccc(NC(=O)CCN4CCCC4)cc3nc3cc(NC(=O)CCN4CCCC4)ccc23)cc1,IC50,second compound 0.0316 µM,42.7 nM
same,IC50,second compound 0.1 µM,24.6 nM
same,IC50,second compound 0.316 µM,34.6 nM
same,IC50,second compound 1 µM,45 nM
same,IC50,second compound 3.16 µM,< 0.999 nM
same,IC50,second compound 10 µM,< 0.999 nM
same,"viability, T/C","second compound 0.0316 µM, first compound 0.000999 µM",95.1%
same,"viability, T/C","second compound 0.0316 µM, first compound 0.00316 µM",78.8%
same,"viability, T/C","second compound 0.0316 µM, first compound 0.00999 µM",84.6%
same,"viability, T/C",[1],50.4%
same,"viability, T/C","second compound 0.0316 µM, first compound 0.0999 µM",42.2%
same,"viability, T/C",[2],29%
same,"viability, T/C","second compound 0.1 µM, first compound 0.000999 µM",102%
same,"viability, T/C","second compound 0.1 µM, first compound 0.00316 µM",73%
same,"viability, T/C","second compound 0.1 µM, first compound 0.00999 µM",56.1%
same,"viability, T/C",[3],51.4%
same,"viability, T/C","second compound 0.1 µM, first compound 0.0999 µM",46.7%
same,"viability, T/C",[4],23%
same,"viability, T/C","second compound 0.316 µM, first compound 0.000999 µM",81.9%
same,"viability, T/C","second compound 0.316 µM, first compound 0.00316 µM",63.7%
same,"viability, T/C","second compound 0.316 µM, first compound 0.00999 µM",59.3%
same,"viability, T/C",[5],49.7%
same,"viability, T/C","second compound 0.316 µM, first compound 0.0999 µM",48.6%
same,"viability, T/C",[6],37.8%
same,"viability, T/C","second compound 1 µM, first compound 0.000999 µM",63.2%
same,"viability, T/C","second compound 1 µM, first compound 0.00316 µM",63.6%
same,"viability, T/C","second compound 1 µM, first compound 0.00999 µM",61.2%
same,"viability, T/C",[7],52.1%
same,"viability, T/C","second compound 1 µM, first compound 0.0999 µM",40.2%
same,"viability, T/C",[8],38.2%
same,"viability, T/C","second compound 3.16 µM, first compound 0.000999 µM",42.7%
same,"viability, T/C","second compound 3.16 µM, first compound 0.00316 µM",41.5%
same,"viability, T/C","second compound 3.16 µM, first compound 0.00999 µM",33.8%
same,"viability, T/C",[9],31.4%
same,"viability, T/C","second compound 3.16 µM, first compound 0.0999 µM",25.1%
same,"viability, T/C",[10],24.9%
same,"viability, T/C","second compound 10 µM, first compound 0.000999 µM",7.06%
same,"viability, T/C","second compound 10 µM, first compound 0.00316 µM",7.39%
same,"viability, T/C","second compound 10 µM, first compound 0.00999 µM",6.25%
same,"viability, T/C",[11],5.78%
same,"viability, T/C","second compound 10 µM, first compound 0.0999 µM",5.88%
same,"viability, T/C",[12],4.9%
CC(C)(O)C1CCC(Nc2ccc3ncc(-c4cccc(C(F)(F)F)c4)n3n2)CC1 (centres undefined) + Cc1cnc(CNC(=O)c2c(=O)c3ccc(N4CCCN(C)CC4)nc3n3c2sc2ccccc23)cn1,IC50,second compound 0.0316 µM,358 nM
same,IC50,second compound 0.1 µM,< 31.6 nM
same,IC50,second compound 0.316 µM,< 31.6 nM
same,IC50,second compound 1 µM,< 31.6 nM
same,IC50,second compound 3.16 µM,< 31.6 nM
same,IC50,second compound 10 µM,< 31.6 nM
same,"viability, T/C",[1],52.8%
same,"viability, T/C","second compound 0.0316 µM, first compound 0.1 µM",51.1%
same,"viability, T/C",[2],51.6%
same,"viability, T/C","second compound 0.0316 µM, first compound 1 µM",37.6%
same,"viability, T/C","second compound 0.0316 µM, first compound 3.16 µM",22%
same,"viability, T/C","second compound 0.0316 µM, first compound 10 µM",21.3%
same,"viability, T/C",[3],28.9%
same,"viability, T/C","second compound 0.1 µM, first compound 0.1 µM",32.1%
same,"viability, T/C",[4],32.7%
same,"viability, T/C","second compound 0.1 µM, first compound 1 µM",29.3%
same,"viability, T/C","second compound 0.1 µM, first compound 3.16 µM",16.6%
same,"viability, T/C","second compound 0.1 µM, first compound 10 µM",18.6%
same,"viability, T/C",[5],25.3%
same,"viability, T/C","second compound 0.316 µM, first compound 0.1 µM",28.4%
same,"viability, T/C",[6],27.2%
same,"viability, T/C","second compound 0.316 µM, first compound 1 µM",24.4%
same,"viability, T/C","second compound 0.316 µM, first compound 3.16 µM",18.2%
same,"viability, T/C","second compound 0.316 µM, first compound 10 µM",16%
same,"viability, T/C",[7],17.9%
same,"viability, T/C","second compound 1 µM, first compound 0.1 µM",27.1%
same,"viability, T/C",[8],25.6%
same,"viability, T/C","second compound 1 µM, first compound 1 µM",22.4%
same,"viability, T/C","second compound 1 µM, first compound 3.16 µM",18.7%
same,"viability, T/C","second compound 1 µM, first compound 10 µM",13.9%
same,"viability, T/C",[9],19.7%
same,"viability, T/C","second compound 3.16 µM, first compound 0.1 µM",22.3%
same,"viability, T/C",[10],25.1%
same,"viability, T/C","second compound 3.16 µM, first compound 1 µM",23.3%
same,"viability, T/C","second compound 3.16 µM, first compound 3.16 µM",12.7%
same,"viability, T/C","second compound 3.16 µM, first compound 10 µM",7.93%
same,"viability, T/C",[11],19.2%
same,"viability, T/C","second compound 10 µM, first compound 0.1 µM",24.1%
same,"viability, T/C",[12],24.4%
same,"viability, T/C","second compound 10 µM, first compound 1 µM",21.3%
same,"viability, T/C","second compound 10 µM, first compound 3.16 µM",0.12%
same,"viability, T/C","second compound 10 µM, first compound 10 µM",0.11%
